# System: T1, EstPS1
# T1 construct: full-length ORF with signal peptide (24 residues) and autotransporter domain (357-640); N-terminal His-tag, pET-28a, E. coli BL21(DE3), Ni-NTA; 640 residues, 68 kDa
# Assay: pesticide hydrolysis, gas chromatography, Lineweaver-Burk
# Assay type: biochemical, Pseudomonas synxantha
# Details: 50 mM Tris-HCl pH 8.0, 40 °C (degradation assay); stated substrate range 10 to 500 μM
# Description: pesticide hydrolysis, gas chromatography, Lineweaver-Burk on EstPS1
row,SMILES,Km [µM]
1,CC1(C)C(C=C(Cl)Cl)C1C(=O)OC(C#N)c1cccc(Oc2ccccc2)c1 (stereo not drawn) [trans-Cypermethrin],0.53 ± 0.028
2,CC1(C)C(C(=O)OC(C#N)c2cccc(Oc3ccccc3)c2)C1(C)C (stereo not drawn) [Fenpropathrin],0.25 ± 0.014
3,CC(C)C(C(=O)OC(C#N)c1cccc(Oc2ccccc2)c1)c1ccc(Cl)cc1 (stereo not drawn) [Fenvalerate],0.84 ± 0.042
4,CNC(=O)Oc1cccc2ccccc12 [Carbaryl],0.21 ± 0.01
5,CC1(C)C(C=C(Cl)Cl)C1C(=O)OC(C#N)c1cccc(Oc2ccccc2)c1 (stereo not drawn) [cis-Cypermethrin],0.62 ± 0.031
6,Cc1c(COC(=O)[C@@H]2[C@H](/C=C(\Cl)C(F)(F)F)C2(C)C)cccc1-c1ccccc1 (racemic) [Bifenthrin],1.25 ± 0.061

# System: T1, EstPS1
# Assay: p-nitrophenol release at […] nm, Lineweaver-Burk
# Assay type: biochemical, Pseudomonas synxantha
# Details: 50 mM Tris-HCl pH 8.0, 60 °C
row,SMILES,Km [µM]
1,CCCCCCCCCCCC(=O)Oc1ccc([N+](=O)[O-])cc1 [p-Nitrophenyl laurate],391 ± 9
2,CCCCCC(=O)Oc1ccc([N+](=O)[O-])cc1 [p-Nitrophenyl caproate],76 ± 7
3,CC(=O)Oc1ccc([N+](=O)[O-])cc1 [p-Nitrophenyl acetate],102 ± 12
4,CCCCCCCC(=O)Oc1ccc([N+](=O)[O-])cc1 [p-Nitrophenyl caprylate],61 ± 10
5,CCCCCCCCCC(=O)Oc1ccc([N+](=O)[O-])cc1 [p-Nitrophenyl decanoate],362 ± 13
6,CCCC(=O)Oc1ccc([N+](=O)[O-])cc1 [p-Nitrophenyl butyrate],43 ± 8

# Source: PMC5471204, “Autotransporter domain-dependent enzymatic analysis of a novel extremely thermostable carboxylesterase with high biodegradability towards pyrethroid pesticides” (Scientific Reports, 2017)
